Patent US20230416228A1 (Forkhead Biotherapeutics, Inc., priority 2020, published 2023)

Molecular target: T1, human FOXO1 (constitutively active form Thr24Ala, Ser256Ala, Ser319Ala) (Homo sapiens, UniProt Q12778, S256A/S319A/T24A)
T1 construct: expressed in transfected cells; host or cells: HEK293 cells transfected with pcDNA3.1 plasmid
Assay: FOXO1 inhibitor activity assay: cell-based transcriptional (luciferase) reporter assay in HEK293 cells
Details: HEK293 cells transfected with insulin response element firefly luciferase reporter, FOXO1 and Renilla luciferase; 10-point dose response 50 μM to 2.5 nM; 24 hours
Experimental: The inhibitory activities of compounds on FOXO1 were determined by a cell-based transcriptional reporter assay. HEK293 cells were plated onto either 384-well poly-D-lysine coated plates (at 7500 cells per well) or 96-well plates (at 20000 cells per well) in low glucose Eagle's Minimum Essential Medium (EMEM) containing 1% fetal bovine serum, and incubated overnight at 37° C. and 5% CO2. […] Duplicate wells were included for each treatment condition. Cells were incubated for 24 hours at 37° C. and 5% CO2. Luciferase activities in each well were measured using Dual-Glog Luciferase Assay System (Promega) according to manufacturer's protocol and an Envision plate reader suitable for luminescence detection. Firefly luciferase activity was divided by Renilla luciferase activity to calculate a ratio for each well. The ratio in wells containing cells transfected with all 3 plasmids listed above and receiving only DMSO without compound addition was set to 100%. The ratio in wells containing cells transfected with plasmid (1), plasmid (3), and pcDNA3.1 containing the open reading frame of red fluorescent protein (instead of human FOXO1) and treated with DMSO was set to 0%. The ratio in each well receiving compound treatment was normalized and expressed as a percentage. Data were fit by 4-parameter logistic regression to determine IC50 and maximal inhibition values. Each compound was tested in a minimum of 2 independent experiments.

T1 sequence (Q12778 whole entry T24A/S256A/S319A): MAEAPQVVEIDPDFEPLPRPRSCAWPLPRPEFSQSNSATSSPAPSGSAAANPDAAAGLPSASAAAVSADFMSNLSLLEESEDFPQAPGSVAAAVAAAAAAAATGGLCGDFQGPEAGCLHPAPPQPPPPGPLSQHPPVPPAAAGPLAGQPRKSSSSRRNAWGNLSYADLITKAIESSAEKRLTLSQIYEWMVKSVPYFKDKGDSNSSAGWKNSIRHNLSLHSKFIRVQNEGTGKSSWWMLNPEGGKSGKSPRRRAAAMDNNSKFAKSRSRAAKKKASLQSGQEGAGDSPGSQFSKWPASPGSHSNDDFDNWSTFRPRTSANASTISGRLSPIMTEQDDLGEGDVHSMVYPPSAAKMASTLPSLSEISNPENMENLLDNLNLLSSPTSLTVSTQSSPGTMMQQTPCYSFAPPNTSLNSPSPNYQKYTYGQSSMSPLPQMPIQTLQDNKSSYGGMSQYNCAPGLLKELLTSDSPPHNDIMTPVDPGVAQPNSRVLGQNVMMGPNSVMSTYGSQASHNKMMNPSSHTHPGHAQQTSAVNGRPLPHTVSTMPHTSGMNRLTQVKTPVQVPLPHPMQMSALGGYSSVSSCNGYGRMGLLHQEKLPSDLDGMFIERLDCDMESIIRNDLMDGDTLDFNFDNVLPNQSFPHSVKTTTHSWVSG

SMILES	IC50 [µM]
Cc1nc(N2CCOCC2)ccc1C(=O)Nc1cc(-c2nc3ccccc3[nH]2)n(C)n1 [Compound A-236]	0.1 to 0.3
O=C(Nc1cc(-c2nc3cc(Cl)ccc3[nH]2)[nH]n1)c1ccc(OCCO)c(Cl)c1 [Compound A-121, 3-chloro-N-[5-(5-chloro-1H-benzimidazol-2-yl)-1H-pyrazol-3-yl]-4-(2-hydroxyethoxy)benzamide]	0.1 to 0.3
COC1CN(c2ccc(C(=O)Nc3cc(-c4nc5cc(F)ccc5[nH]4)[nH]n3)cn2)C1 [Compound A-132, N-[5-(5-fluoro-1H-benzimidazol-2-yl)-1H-pyrazol-3-yl]-6-(3-methoxy-azetidin-1-yl)pyridine-3-carboxamide]	< 0.1
O=C(Nc1cc(-c2nc3cc(Br)ccc3[nH]2)[nH]n1)c1ccc(N2CCOCC2)nc1 [Compound A-91, N-[5-(5-bromo-1H-benzimidazol-2-yl)-1H-pyrazol-3-yl]-6-morpholino-pyridine-3-carboxamide]	> 1
CN(C1CCN(c2ccc(C(=O)Nc3cc(-c4nc5ccccc5[nH]4)[nH]n3)cn2)CC1)S(C)(=O)=O [Compound A-169, N-[5-(1H-benzimidazol-2-yl)-1H-pyrazol-3-yl]-6-[4-[methyl(methyl-sulfonyl)amino]-1-piperidyl]pyridine-3-carboxamide]	0.1 to 0.3
CCOC(=O)COc1ccc(C(=O)Nc2cc(-c3nc4ccccc4[nH]3)[nH]n2)cc1Cl [Compound A-57, ethyl 2-[4-[[5-(1H-benzimidazol-2-yl)-1H-pyrazol-3-yl]carbamoyl]-2-chloro-phenoxy]acetate]	> 1
CN1CCN(c2ccc(C(=O)Nc3cc(-c4nc5ccccc5[nH]4)[nH]n3)nc2)CC1 [Compound A-184, N-[5-(1H-benzimidazol-2-yl)-1H-pyrazol-3-yl]-5-(4-methylpiperazin-1-yl)pyridine-2-carboxamide]	> 1
CN1CCN(c2ccc(C(=O)Nc3cc(-c4nc5ccccc5[nH]4)n(C)n3)cc2)CC1=O [Compound A-235, N-[5-(1H-benzimidazol-2-yl)-1-methyl-pyrazol-3-yl]-4-(4-methyl-3-oxo-piperazin-1-yl)benzamide]	0.1 to 0.3
COc1cc(F)c2[nH]c(-c3cc(NC(=O)c4ccc(N5CCC(OC)CC5)nc4)nn3C)nc2c1 [Compound A-189, N-[5-(7-fluoro-5-methoxy-1H-benzimidazol-2-yl)-1-methyl-pyrazol-3-yl]-6-(4-methoxy-1-piperidyl)pyridine-3-carboxamide]	< 0.1
COc1cc(F)c2[nH]c(-c3cc(NC(=O)c4ccc(N5CC(OC)C5)nc4)nn3C)nc2c1 [Compound A-187, N-[5-(7-fluoro-5-methoxy-1H-benzimidazol-2-yl)-1-methyl-pyrazol-3-yl]-6-(3-methoxyazetidin-1-yl)pyridine-3-carboxamide]	0.3 to 1
COCCOc1ccc(C(=O)Nc2cc(-c3nc4ccccc4[nH]3)[nH]n2)cc1C(F)(F)F [Compound A-104, N-[5-(1H-benzimidazol-2-yl)-1H-pyrazol-3-yl]-4-(2-methoxyethoxy)-3-(trifluoromethyl)benzamide]	< 0.1
O=C(Nc1cc(-c2nc3cc(OC(F)(F)F)ccc3[nH]2)[nH]n1)c1ccc(OCCO)c(Cl)c1 [Compound A-116, 3-chloro-4-(2-hydroxyethoxy)-N-[5-[5-(trifluoromethoxy)-1H-benzimidazol-2-yl]-1H-pyrazol-3-yl]benzamide]	0.1 to 0.3
COC1CN(c2ncc(C(=O)Nc3cc(-c4nc5ccccc5[nH]4)[nH]n3)cn2)C1 [Compound A-183, N-[5-(1H-benzimidazol-2-yl)-1H-pyrazol-3-yl]-2-(3-methoxyazetidin-1-yl)pyrimidine-5-carboxamide]	> 1
O=C(Nc1cc(-c2nc3ccccc3[nH]2)[nH]n1)c1ccc(N2CCC3(CCCO3)CC2)nc1 [Compound A-44, N-[5-(1H-benzimidazol-2-yl)-1H-pyrazol-3-yl]-6-(1-oxa-8-azaspiro[4.5]decan-8-yl)pyridine-3-carboxamide]	< 0.1
Cn1nc(NC(=O)c2ccc(N3CCNCC3)cc2)cc1-c1nc2ccccc2[nH]1 [Compound A-217, N-[5-(1H-benzimidazol-2-yl)-1-methyl-pyrazol-3-yl]-4-piperazin-1-yl-benzamide]	0.1 to 0.3
O=C(Nc1cc(-c2nc3cc(OC(F)(F)F)ccc3[nH]2)[nH]n1)c1ccc(N2CCOCC2)nc1 [Compound A-107, 6-morpholino-N-[5-[5-(trifluoromethoxy)-1H-benzimidazol-2-yl]-1H-pyrazol-3-yl]pyridine-3-carboxamide]	> 1

SMILES	IC50 [µM]
COC1CN(c2ccc(C(=O)Nc3cc(-c4nc5cc(F)ccc5[nH]4)n(C)n3)cn2)C1 [Compound A-128, N-[5-(5-fluoro-1H-benzimidazol-2-yl)-1-methyl-pyrazol-3-yl]-6-(3-methoxyazetidin-1-yl)pyridine-3-carboxamide]	0.3 to 1
O=C(Nc1cc(-c2nc3cccc(F)c3[nH]2)[nH]n1)c1ccc(N2CCOCC2)nc1 [Compound A-85, N-[5-(7-fluoro-1H-benzimidazol-2-yl)-1H-pyrazol-3-yl]-6-morpholino-pyridine-3-carboxamide]	< 0.1
O=C(Nc1cc(-c2nc3cc(OC(F)(F)F)ccc3[nH]2)[nH]n1)c1ccc(N2CCC(CO)CC2)nc1 [Compound A-114, 6-[4-(hydroxymethyl)-1-piperidyl]-N-[5-[5-(trifluoromethoxy)-1H-benzimidazol-2-yl]-1H-pyrazol-3-yl]pyridine-3-carboxamide]	> 1
O=C(Nc1cc(-c2nc3cc(Br)ccc3[nH]2)[nH]n1)c1ccc(OCCO)c(Cl)c1 [Compound A-118, N-[5-(5-bromo-1H-benzimidazol-2-yl)-1H-pyrazol-3-yl]-3-chloro-4-(2-hydroxyethoxy)benzamide]	0.3 to 1
C[C@@H]1CN(c2ccc(C(=O)Nc3cc(-c4nc5ccccc5[nH]4)n(C)n3)cn2)C[C@H](C)N1CCO [Compound A-278, N-[5-(1H-benzimidazol-2-yl)-1-methyl-pyrazol-3-yl]-6-[(3R,5S)-4-(2-hydroxyethyl)-3,5-dimethyl-piperazin-1-yl]pyridine-3-carboxamide]	0.1 to 0.3
COc1cc(F)c2[nH]c(-c3cc(NC(=O)c4ccc(N5CCN(CCO)CC5)nc4)nn3C)nc2c1 [Compound A-211, N-[5-(7-fluoro-5-methoxy-1H-benzimidazol-2-yl)-1-methyl-pyrazol-3-yl]-6-[4-(2-hydroxyethyl)piperazin-1-yl]pyridine-3-carboxamide]	0.1 to 0.3
COCCN1CCN(c2ccc(C(=O)Nc3cc(-c4nc5ccccc5[nH]4)[nH]n3)cc2)CC1 [Compound A-174, N-[5-(1H-benzimidazol-2-yl)-1H-pyrazol-3-yl]-4-[4-(2-methoxyethyl)-piperazin-1-yl]benzamide]	< 0.1
CN1CCN(c2ccc(C(=O)Nc3cc(-c4nc5ccccc5[nH]4)n(C)n3)cn2)CC1CO (centres unmarked) [Compound A-263, N-[5-(1H-benzimidazol-2-yl)-1-methyl-pyrazol-3-yl]-6-[3-(hydroxy-methyl)-4-methyl-piperazin-1-yl]pyridine-3-carboxamide]	0.1 to 0.3
COC1CCN(c2ccc(C(=O)Nc3cc(-c4nc5cccc(F)c5[nH]4)n(C)n3)cn2)CC1 [Compound A-157]	0.1 to 0.3
Cc1cc(N2CCOCC2)ncc1C(=O)Nc1cc(-c2nc3ccccc3[nH]2)n(C)n1 [Compound A-232, N-[5-(1H-benzimidazol-2-yl)-1-methyl-pyrazol-3-yl]-4-methyl-6-morpholino-pyridine-3-carboxamide]	> 1
O=C(Nc1cc(-c2nc3cc(C(F)(F)F)ccc3[nH]2)[nH]n1)c1ccc(N2CCC(CO)CC2)nc1 [Compound A-101, 6-[4-(hydroxymethyl)-1-piperidyl]-N-[5-[5-(trifluoromethyl)-1H-benzimidazol-2-yl]-1H-pyrazol-3-yl]pyridine-3-carboxamide]	> 1
COc1ccc(C(=O)Nc2n[nH]c(-c3nc4ccccc4[nH]3)c2F)cc1Cl [Compound A-76, N-[5-(1H-benzimidazol-2-yl)-4-fluoro-1H-pyrazol-3-yl]-3-chloro-4-methoxy-benzamide]	> 1
COc1cc(F)c2[nH]c(-c3cc(NC(=O)c4ccc(N5CCN(C(C)=O)CC5)nc4)nn3C)nc2c1 [Compound A-240, 6-(4-acetylpiperazin-1-yl)-N-[5-(7-fluoro-5-methoxy-1H-benzimidazol-2-yl)-1-methyl-pyrazol-3-yl]pyridine-3-carboxamide]	< 0.1
Cn1nc(NC(=O)c2ccc(N3CC[C@@H](O)C3)nc2)cc1-c1nc2ccccc2[nH]1 [Compound A-225, N-[5-(1H-benzimidazol-2-yl)-1-methyl-pyrazol-3-yl]-6-[(3R)-3-hydroxy-pyrrolidin-1-yl]pyridine-3-carboxamide]	0.3 to 1
Cn1nc(NC(=O)c2ccc(N3C4CCC3COC4)nc2)cc1-c1nc2ccccc2[nH]1 [Compound A-285, N-[5-(1H-benzimidazol-2-yl)-1-methyl-pyrazol-3-yl]-6-(3-oxa-8-azabicyclo[3.2.1]octan-8-yl)pyridine-3-carboxamide]	< 0.1
Cc1ccc2[nH]c(-c3cc(NC(=O)c4ccc(N5CCC(CO)CC5)nc4)n[nH]3)nc2c1 [Compound A-98, 6-[4-(hydroxymethyl)-1-piperidyl]-N-[5-(5-methyl-1H-benzimidazol-2-yl)-1H-pyrazol-3-yl]pyridine-3-carboxamide]	< 0.1
